Data taken from PMC10649961, “Novel Mitochondria-Targeted Amphiphilic Aminophosphonium Salts and Lipids Nanoparticles: Synthesis, Antitumor Activity and Toxicity” (Nanomaterials, 2023).
Where two headings read alike, the source gives them in different places.

Key:
[1] = test system: Staphylococcus aureus ATCC 6538 P FDA 209P; experiment: Antimicrobial activity, serial microdilutions, Sa; format: cell-based; conditions: Staphylococcus aureus; for MIC: read-out: Minimum Inhibitory Concentration (MIC); for MBC: read-out: Minimum bactericidal and fungicidal concentrations (MBC, MFC)
Description: (§1) The antimicrobial activity of test compounds was determined by serial microdilutions in 96-well plates using Mueller-Hinton broth for bacterial culture and Sabouraud broth for yeast culture. Cultures of Gram-positive bacteria were used in the experiment: Staphylococcus aureus ATCC 6538 P FDA 209P, Bacillus cereus ATCC 10702 NCTC 8035, Enterococcus faecalis ATCC 29212; Gram-negative bacteria: Escherichia coli ATCC 25922, Pseudomonas aeruginosa ATCC 9027; and yeast: Candida albicans ATCC 10231, purchased from the State Collection of Pathogenic Microorganisms and Cell Cultures “SCPM-Obolensk” (Obolensk, Russia). Methicillin-resistant strains of S. aureus (MRSA) were isolated from patients with chronic tonsillitis (MRSA-1) and sinusitis (MRSA-2) in the bacteriological laboratory of the Republican Clinical Hospital (Kazan, Russia). The experiments were carried out in triplicate.

[2] = test system: Bacillus cereus ATCC 10702 NCTC 8035; experiment: Antimicrobial activity, serial microdilutions, Bc; format: cell-based; conditions: Bacillus cereus; for MIC: Bc, read-out: Minimum Inhibitory Concentration (MIC); for MBC: read-out: Minimum bactericidal and fungicidal concentrations (MBC, MFC)
Description: as §1

[3] = test system: Enterococcus faecalis ATCC 29212; experiment: Antimicrobial activity, serial microdilutions, Ef; format: cell-based; conditions: Enterococcus faecalis; for MIC: ATCC29212, read-out: Minimum Inhibitory Concentration (MIC); for MBC: ATCC29212, read-out: Minimum bactericidal and fungicidal concentrations (MBC, MFC)
Description: as §1

MRSA-1 = experiment: Antimicrobial activity, serial microdilutions, MRSA-1; format: cell-based, S. aureus; conditions: Staphylococcus aureus; for MIC: read-out: Minimum Inhibitory Concentration (MIC); for MBC: read-out: Minimum bactericidal and fungicidal concentrations (MBC, MFC)
Description: as §1

MRSA-2 = experiment: Antimicrobial activity, serial microdilutions, MRSA-2; format: cell-based, S. aureus; conditions: Staphylococcus aureus; for MIC: read-out: Minimum Inhibitory Concentration (MIC); for MBC: read-out: Minimum bactericidal and fungicidal concentrations (MBC, MFC)
Description: as §1

[4] = test system: Escherichia coli ATCC 25922; experiment: Antimicrobial activity, serial microdilutions, Ec; format: cell-based; conditions: Escherichia coli; for MIC: ATCC25922, read-out: Minimum Inhibitory Concentration (MIC); for MBC: ATCC25922, read-out: Minimum bactericidal and fungicidal concentrations (MBC, MFC)
Description: as §1

[5] = test system: Pseudomonas aeruginosa ATCC 9027; experiment: Antimicrobial activity, serial microdilutions, Pa; format: cell-based; set-up: key to Minimum Inhibitory Concentration (MIC) / Minimum bactericidal and fungicidal concentrations (MBC, MFC): – means non-active; conditions: for MBC: ATCC9027, read-out: Minimum bactericidal and fungicidal concentrations (MBC, MFC)
Description: as §1

[6] = test system: Candida albicans ATCC 10231; experiment: Antimicrobial activity, serial microdilutions, Ca; format: cell-based; set-up: key to Minimum Inhibitory Concentration (MIC) / Minimum bactericidal and fungicidal concentrations (MBC, MFC): – means non-active
Description: as §1

M-HeLa [7] = test system: M-HeLa
MCF-7 [8] = conditions: calculated relative to the cell line Chang liver (b)
HuTu 80 [9] = test system: HuTu 80
PANC-1 [10] = test system: PANC-1
A549 [11] = conditions: reference normal cell line not marked at the place (ns cells)
PC3 [12] = test system: PC3
T98G [13] = conditions: calculated relative to the cell line Chang liver (b)
Hep G2 [14] = conditions: calculated relative to the cell line Chang liver (b)
SK-OV-3 [15] = conditions: reference normal cell line not marked at the place (ns cells)
DU-145 [16] = conditions: calculated relative to the cell line Chang liver (b)
M-HeLa [17] = experiment: cells; conditions: Homo sapiens, 48 h, read-out: Cytotoxic Effects (IC50)
MCF-7 [18] = experiment: cells; conditions: Homo sapiens, MCF7, 48 h, read-out: Cytotoxic Effects (IC50)
HuTu 80 [19] = experiment: cells; conditions: Homo sapiens, HuTu80, 48 h, read-out: Cytotoxic Effects (IC50)
PANC-1 [20] = experiment: cells; conditions: Homo sapiens, PANC-1, 48 h, read-out: Cytotoxic Effects (IC50)
A549 [21] = experiment: cells; conditions: Homo sapiens, A549, 48 h, read-out: Cytotoxic Effects (IC50)
PC3 [22] = experiment: cells; conditions: Homo sapiens, PC-3, 48 h, read-out: Cytotoxic Effects (IC50), PC3, MTT assay, 48 h
T98G [23] = experiment: cells; conditions: Homo sapiens, 48 h, read-out: Cytotoxic Effects (IC50)
Hep G2 [24] = experiment: cells; conditions: Homo sapiens, HepG2, 48 h, read-out: Cytotoxic Effects (IC50)
SK-OV-3 [25] = experiment: cells; conditions: Homo sapiens, SK-OV-3, 48 h, read-out: Cytotoxic Effects (IC50)
DU-145 [26] = experiment: cells; conditions: Homo sapiens, DU-145, 48 h, read-out: Cytotoxic Effects (IC50), DU-145, MTT assay, 48 h
[27] = calculated relative to the cell line Chang liver (b)
[28] = reference normal cell line not marked at the place (ns cells)

Row | Compound | MIC [1] [µM] | MBC [1] [µM] | MIC [2] [µM] | MBC [2] [µM] | MIC [3] [µM] | MBC [3] [µM] | MIC (MRSA-1) [µM] | MBC (MRSA-1) [µM] | MIC (MRSA-2) [µM] | MBC (MRSA-2) [µM] | MIC [4] [µM] | MBC [4] [µM] | MBC ([5]; Pseudomonas aeruginosa) [µM] | Minimum bactericidal and fungicidal concentrations (MBC, MFC) ([6]; Ca) | selectivity index (SI) (MCF-7 [8]) | selectivity index (SI) (A549 [11]) | selectivity index (SI) (T98G [13]) | selectivity index (SI) (Hep G2 [14]) | selectivity index (SI) (SK-OV-3 [15]) | selectivity index (SI) (DU-145 [16]) | also measured
1 | CCCCCCCCC[P+](c1ccccc1)(N(CC)CC)N(CC)CC [5c, Bis(diethylamino)(nonyl)(phenyl)phosphonium iodide] | 3.9 ± 0.3 | 125 ± 10 | 3.9 ± 0.3 | 500 ± 48 | 31.3 ± 2.2 | 500 ± 48 | 3.9 ± 0.3 | 62.5 ± 5.5 | 3.9 ± 0.4 | 62.5 ± 5.4 | 250 ± 19 | 500 ± 48 | > 500 | – | 1.3 | ns (ns—no selectivity) | 1.5 | 1.8 | ns (ns—no selectivity) | 4.6 | Minimum Inhibitory Concentration (MIC) [5]: –; Minimum Inhibitory Concentration (MIC) ([6]; Ca): –; selectivity index (SI) (M-HeLa [7]; [27]): 2.4; selectivity index (SI) (HuTu 80 [9]; [27]): 1.5; selectivity index (SI) (PANC-1 [10]; [27]): 1.5; selectivity index (SI) (PC3 [12]; [28]): ns (ns—no selectivity); IC50 (M-HeLa [17]): 1.7 ± 0.1 µM; IC50 (MCF-7 [18]): 3.1 ± 0.2 µM; IC50 (HuTu 80 [19]): 2.8 ± 0.3 µM; IC50 (PANC-1 [20]): 2.8 ± 0.2 µM; IC50 (A549 [21]): 8.7 ± 0.7 µM; IC50 (PC3 [22]): 10 ± 0.9 µM; IC50 (T98G [23]): 2.7 ± 0.3 µM; IC50 (Hep G2 [24]): 2.3 ± 0.1 µM; IC50 (SK-OV-3 [25]): 14.8 ± 1.2 µM; IC50 (DU-145 [26]): 0.9 ± 0.07 µM
2 | CCCCCCCCCC[P+](c1ccccc1)(N(CC)CC)N(CC)CC [5d, Decylbis(diethylamino)(phenyl)phosphonium iodide] | 0.9 ± 0.07 | 125 ± 9 | 0.9 ± 0.08 | 500 ± 47 | 15.6 ± 1.2 | 125 ± 9 | 0.9 ± 0.08 | 125 ± 11 | 0.9 ± 0.08 | 62.5 ± 5.2 | 62.5 ± 5.4 | 62.5 ± 5.3 | 500 ± 47 | – | 1.9 | ns (ns—no selectivity) | 1.9 | 1.2 | ns (ns—no selectivity) | 2.9 | MIC ([5]; Pseudomonas aeruginosa, ATCC9027, read-out: Minimum Inhibitory Concentration (MIC)): 500 ± 48 µM; MIC ([6]; Candida albicans, ATCC10231, read-out: Minimum Inhibitory Concentration (MIC)): 250 ± 21 µM; selectivity index (SI) (M-HeLa [7]; [28]): ns (ns—no selectivity); selectivity index (SI) (HuTu 80 [9]; [28]): ns (ns—no selectivity); selectivity index (SI) (PANC-1 [10]; [28]): ns (ns—no selectivity); selectivity index (SI) (PC3 [12]; [27]): 1.6; IC50 (M-HeLa [17]): 1.5 ± 0.1 µM; IC50 (MCF-7 [18]): 0.7 ± 0.06 µM; IC50 (HuTu 80 [19]): 2.5 ± 0.1 µM; IC50 (PANC-1 [20]): 1.4 ± 0.1 µM; IC50 (A549 [21]): 8.9 ± 0.7 µM; IC50 (PC3 [22]): 0.8 ± 0.06 µM; IC50 (T98G [23]): 0.7 ± 0.05 µM; IC50 (Hep G2 [24]): 1.1 ± 0.09 µM; IC50 (SK-OV-3 [25]): 10 ± 0.8 µM; IC50 (DU-145 [26]): 0.45 ± 0.03 µM
